Assay results as given in PubChem BioAssay AID1259408 (Genetic Toxicology Data Bank (GENE-TOX), 2018).
The source made the active and inactive calls. The rule behind the calls is not given here.

System: GENE-TOX genotoxicity assays, various organisms and cells
Test: GENE-TOX mutagenicity studies
Conditions: for call: Assay Type: In vivo carcinogenicity studies
[1] = Species/Cell Type: Fischer rat embryo (RLV/1706) cells, Assay Type: Cell transformation, viral enhanced, Assay Code: CTR+, Evaluation Type: Evaluation A (Pre-1980)
[2] = Species/Cell Type: Human diploid fibroblasts, Assay Type: Unscheduled DNA synthesis (UDS) in vitro, DNA effects, Assay Code: UDH-, Evaluation Type: Evaluation A (Pre-1980)
[3] = Species/Cell Type: Mammalian polychromatic erythrocytes, Assay Type: Micronucleus test, chromosome aberrations, Assay Code: MNTT, Evaluation Type: Evaluation A (Pre-1980)
[4] = Species/Cell Type: Mouse, Sex: Male, Assay Type: Sperm morphology, Assay Code: SPI-, Evaluation Type: Evaluation A (Pre-1980)
[5] = Species/Cell Type: Salmonella typhimurium (one or more of the five standard strains: TA98, TA100, TA1535, TA1537, and TA1538), Assay Type: Histidine reverse gene mutation, Ames assay, Assay Code: SAL+, Evaluation Type: Evaluation A (Pre-1980)
[6] = Species/Cell Type: Saccharomyces cerevisiae, Assay Type: Mitotic recombination or gene conversion, Assay Code: YEH-, Evaluation Type: Evaluation A (Pre-1980)
[7] = Species/Cell Type: Nonhuman, Assay Code: CCG+, Evaluation Type: Evaluation A (Pre-1980)
[8] = Species/Cell Type: Nonhuman, Assay Type: Sister-chromatid exchange (SCE) in vitro, Assay Code: SC2+D, Dose Response: With dose response, Evaluation Type: Evaluation B (Post-1980)
[9] = Species/Cell Type: Human, Assay Type: Sister-chromatid exchange (SCE) in vitro, Assay Code: SC1+D, Dose Response: With dose response, Evaluation Type: Evaluation B (Post-1980)
[10] = Species/Cell Type: Salmonella typhimurium (one or more of the five standard strains: TA98, TA100, TA1535, TA1537, and TA1538), Assay Type: Histidine reverse gene mutation, Ames assay, Assay Code: SAL+*, Activation: With metabolic activation, Evaluation Type: Evaluation A (Pre-1980)
[11] = Species/Cell Type: Mammalian polychromatic erythrocytes, Assay Type: Micronucleus test, chromosome aberrations, Assay Code: MNT+, Evaluation Type: Evaluation A (Pre-1980)
[12] = Species/Cell Type: Human lymphocytes, Assay Type: Sister-chromatid exchange (SCE) in vitro, Assay Code: SCL+D, Dose Response: With dose response, Evaluation Type: Evaluation B (Post-1980)

Compound: NC(=O)N/N=C/c1ccc([N+](=O)[O-])o1
- mutagenic call (Species/Cell Type: Bacillus subtilis (H17 vs M45), Assay Type: Rec-assay, spot test, DNA effects (bacterial DNA repair), Assay Code: REW+, Evaluation Type: Evaluation A (Pre-1980)): active; positive
- mutagenic call (Species/Cell Type: Chinese hamster ovary (CHO) cells, Assay Type: Forward gene mutation at the HPRT locus, Assay Code: CHO-, Evaluation Type: Evaluation B (Post-1980)): inactive; negative
- mutagenic call (Species/Cell Type: Escherichia coli WP2, Assay Type: Tryptophan reverse gene mutation, Assay Code: WP2T, Evaluation Type: Evaluation A (Pre-1980)): no conclusion
- mutagenic call (Species/Cell Type: Escherichia coli WP2 UVRA, Assay Type: Tryptophan reverse gene mutation, Assay Code: WPU+D, Dose Response: With dose response, Evaluation Type: Evaluation A (Pre-1980)): active; positive
- mutagenic call [1]: active; positive
- mutagenic call [2]: inactive; negative
- mutagenic call [3]: no conclusion
- mutagenic call [4]: inactive; negative
- mutagenic call (Species/Cell Type: Neurospora crassa, Assay Type: Forward gene mutation, Assay Code: NEF+, Evaluation Type: Evaluation A (Pre-1980)): active; positive
- mutagenic call (Species/Cell Type: Neurospora crassa, Assay Type: Reverse gene mutation, Assay Code: NER+, Evaluation Type: Evaluation A (Pre-1980)): active; positive
- mutagenic call (Species/Cell Type: Nonhuman bone marrow, Assay Type: Chromosome aberrations, in vivo, Assay Code: CY#-, Evaluation Type: Evaluation A (Pre-1980)): inactive; negative
- call (Species/Cell Type: Nonhuman, Assay Code: CCG+L, Evaluation Type: Evaluation A (Pre-1980)): active; positive
- mutagenic call [5]: active; positive

Compound: CC1(C)[C@H]2CC[C@]1(C)[C@H](O)C2
- mutagenic call [6]: inactive; negative
- mutagenic call (Species/Cell Type: Salmonella typhimurium (one or more of the five standard strains: TA98, TA100, TA1535, TA1537, and TA1538), Assay Type: Histidine reverse gene mutation, Ames assay, Assay Code: SAL-, Evaluation Type: Evaluation A (Pre-1980)): inactive; negative

Compound: N[C@@H]1CONC1=O
- mutagenic call (Species/Cell Type: Escherichia coli polA (W3119 vs P3478), Assay Type: Rec-assay, DNA effects (bacterial DNA repair), Assay Code: RE1-, Evaluation Type: Evaluation A (Pre-1980)): inactive; negative

Compound: Cc1ccccc1N
- mutagenic call (Species/Cell Type: Escherichia coli polA (W3119 vs P3478), Assay Type: Rec-assay, DNA effects (bacterial DNA repair), Assay Code: RE1+, Evaluation Type: Evaluation A (Pre-1980)): active; positive
- mutagenic call [1]: active; positive
- mutagenic call [3]: no conclusion
- mutagenic call [4]: inactive; negative
- call [7]: active; positive
- mutagenic call [8]: active; positive
- mutagenic call (Species/Cell Type: Nonhuman, Assay Type: Sister-chromatid exchange (SCE) in vivo, Assay Code: SC3+, Evaluation Type: Evaluation B (Post-1980)): active; positive
- mutagenic call [6]: inactive; negative
- mutagenic call (Species/Cell Type: Salmonella typhimurium (one or more of the five standard strains: TA98, TA100, TA1535, TA1537, and TA1538), Assay Type: Histidine reverse gene mutation, Ames assay, Assay Code: SALT, Evaluation Type: Evaluation A (Pre-1980)): no conclusion

Compound: Clc1ccccc1
- mutagenic call (Species/Cell Type: Mammalian polychromatic erythrocytes, Assay Type: Micronucleus test, chromosome aberrations, Assay Code: MNT+, Evaluation Type: Evaluation B (Post-1980)): active; positive

Compound: N[C@@H](CS)C(=O)O
- mutagenic call (Species/Cell Type: Allium cepa, Assay Type: Chromosome aberrations, Assay Code: ALC-, Evaluation Type: Evaluation A (Pre-1980)): inactive; negative
- mutagenic call (Species/Cell Type: Human lymphocytes, Assay Type: Sister-chromatid exchange (SCE) in vitro, Assay Code: SCLT, Evaluation Type: Evaluation B (Post-1980)): no conclusion
- mutagenic call (Species/Cell Type: Human, Assay Type: Sister-chromatid exchange (SCE) in vitro, Assay Code: SC1T, Evaluation Type: Evaluation B (Post-1980)): no conclusion
- mutagenic call [8]: active; positive

Compound: C/C=C(C)/C=C/C=C(C)/C=C/C1=C(C)CCCC1(C)C
- mutagenic call [9]: active; positive

Compound: Cc1nc(N(C)C)nc(OC(=O)N(C)C)c1C
- mutagenic call (Species/Cell Type: Aspergillus nidulans, Assay Type: Aneuploidy, chromosome aberrations, Assay Code: ASN-, Evaluation Type: Evaluation A (Pre-1980)): inactive; negative

Compound: CCCCCN(CCCC)N=O
- mutagenic call [10]: active; positive

Compound: CCCCN1CC1
- mutagenic call (Species/Cell Type: Schizosaccharomyces pombe, Assay Type: Reverse gene mutation, Assay Code: YEZ+, Evaluation Type: Evaluation A (Pre-1980)): active; positive

Compound: CC(=O)Nc1ccc(-c2ccc(NC(C)=O)cc2)cc1
- call [7]: active; positive

Compound: O=P1(NCCCl)OCCCN1CCCl (stereo unspecified)
- mutagenic call (Species/Cell Type: Drosophila melanogaster, Assay Type: Aneuploidy, partial sex chromosome loss, chromosome aberrations, Assay Code: DAP-M, Evaluation Type: Evaluation A (Pre-1980)): inactive; negative
- mutagenic call (Species/Cell Type: Drosophila melanogaster, Assay Type: Aneuploidy, whole sex chromosome loss, chromosome aberrations, Assay Code: DAC-M, Evaluation Type: Evaluation A (Pre-1980)): inactive; negative
- mutagenic call (Species/Cell Type: Drosophila melanogaster, Assay Type: Sex-linked recessive lethal gene mutation, Assay Code: SRL+, Evaluation Type: Evaluation A (Pre-1980)): active; positive
- mutagenic call [11]: active; positive
- call [7]: active; positive
- mutagenic call (Species/Cell Type: Saccharomyces cerevisiae, Assay Type: Forward and reverse gene mutation, mitotic recombination and gene conversion, DNA effects, body fluid assay, Assay Code: BFC+, Evaluation Type: Evaluation A (Pre-1980)): active; positive
- mutagenic call (Species/Cell Type: Saccharomyces cerevisiae, Assay Type: Forward and reverse gene mutation, mitotic recombination and gene conversion, host-mediated assay, Assay Code: HMET, Evaluation Type: Evaluation A (Pre-1980)): no conclusion
- mutagenic call (Species/Cell Type: Saccharomyces cerevisiae, Assay Type: Mitotic recombination or gene conversion, Assay Code: YEC+*, Activation: With metabolic activation, Evaluation Type: Evaluation A (Pre-1980)): active; positive
- mutagenic call [10]: active; positive

Compound: COc1cccc2c1C(=O)c1c(O)c3c(c(O)c1C2=O)C[C@@](O)(C(=O)CO)C[C@@H]3O[C@H]1C[C@H](N)[C@H](O)[C@H](C)O1
- mutagenic call (Species/Cell Type: Chinese hamster lung (V79) cells, Assay Type: Forward gene mutation at the HPRT or ouabain locus, Assay Code: V79+, Evaluation Type: Evaluation A (Pre-1980)): active; positive
- mutagenic call (Species/Cell Type: Chinese hamster ovary (CHO) cells, Assay Type: Forward gene mutation at the HPRT locus, Assay Code: CHO+, Evaluation Type: Evaluation B (Post-1980)): active; positive
- mutagenic call [1]: active; positive
- mutagenic call (Species/Cell Type: Human lymphocytes or leukocytes, Assay Type: Chromosome aberrations in vitro, Assay Code: CY7+, Evaluation Type: Evaluation A (Pre-1980)): active; positive
- mutagenic call [12]: active; positive
- mutagenic call (Species/Cell Type: Human lymphocytes, Assay Type: Sister-chromatid exchange (SCE) in vivo, Assay Code: SCY+D, Dose Response: With dose response, Evaluation Type: Evaluation A (Pre-1980)): active; positive
- mutagenic call (Species/Cell Type: Human, Assay Type: Sister-chromatid exchange (SCE) in vitro, Assay Code: SC1+D, Dose Response: With dose response, Evaluation Type: Evaluation A (Pre-1980)): active; positive
- mutagenic call (Species/Cell Type: Human, Sex: Male, Assay Type: Sperm morphology, Assay Code: SPH+, Evaluation Type: Evaluation A (Pre-1980)): active; positive
- mutagenic call [11]: active; positive
- mutagenic call (Species/Cell Type: Mouse, Sex: Male, Assay Type: Sperm morphology, Assay Code: SPI+, Evaluation Type: Evaluation A (Pre-1980)): active; positive
- call [7]: active; positive
- mutagenic call (Species/Cell Type: Nonhuman, Assay Type: Sister-chromatid exchange (SCE) in vitro, Assay Code: SC2+D, Dose Response: With dose response, Evaluation Type: Evaluation A (Pre-1980)): active; positive
- mutagenic call (Species/Cell Type: Nonhuman, Assay Type: Sister-chromatid exchange (SCE) in vivo, Assay Code: SC3+D, Dose Response: With dose response, Evaluation Type: Evaluation A (Pre-1980)): active; positive
- mutagenic call [5]: active; positive

Compound: CN=C(N)N
- mutagenic call [2]: inactive; negative

Compound: Nc1cccc(Cl)c1
- mutagenic call [4]: inactive; negative

Compound: Cc1ccc([N+](=O)[O-])o1
- mutagenic call (Species/Cell Type: Bacillus subtilis (H17 vs M45T), Assay Type: Rec-assay, spot test, DNA effects (bacterial DNA repair), Assay Code: REX+, Evaluation Type: Evaluation A (Pre-1980)): active; positive
- mutagenic call (Species/Cell Type: Syrian hamster embryo (SHE) cells, Assay Type: Cell transformation, clonal assay, Assay Code: CTC+, Evaluation Type: Evaluation A (Pre-1980)): active; positive

Compound: C=C(Cl)CCl
- mutagenic call [5]: active; positive

Compound: O=[N+]([O-])c1ccc(C=NCCO)o1
- mutagenic call [5]: active; positive

Compound: Cc1cc(C)cc(C2CO2)c1 (stereo unspecified)
- mutagenic call [12]: active; positive
- mutagenic call [9]: active; positive
